Laboratory results published in publication PMC9502776, “Assessment of the Effects of Chitosan, Chitooligosaccharides and Their Derivatives on Lemna minor” (Molecules, 2022).
Values after ≈ are worked out from the molar mass of the structure shown. Counter-ions that a name gives are not always drawn.

Legend:
Lemna minor = Lemna minor growth inhibition assay (OECD Test No. 221); type: in vivo; conditions: for aquatic toxicity category according to U.S. EPA: based on the calculated EC50 values against Lemna minor
Procedure: Four types of polymers were tested, namely low- (ChiS), medium- (ChiM) and high- (ChiL) molecular-weight chitosan and chitosan with a degree of deacetylation of approximately 50% (Chi50). The chitosan samples were tested in three concentrations (50 mg/L, 500 mg/L and 5000 mg/L) and were obtained by dissolving the polymers in 0.3% acetic acid, followed by dilution with culture medium in a 1:2 ratio.
Four types of chitooligosaccharides were tested: D-glucosamine hydrochloride (G), N-acetyl-D-glucosamine (NAG or A), chitobiose dihydrochloride (2G), and carboxymethyl chitosan (CMChi). Three chitooligosaccharides (G, NAG, 2G) were tested in three concentrations: 5 mg/L, 50 mg/L and 250 mg/L, being dissolved directly into L. minor culture medium. CMChi was tested in four concentrations (50 mg/L, 250 mg/L, 500 mg/L and 5000 mg/L) and the solutions were prepared by dissolving the polymer directly in L. minor culture medium.
Lemna minor, the common duckweed, was used as a test organism for the assessment of growth response of the tested chitosan samples and chitooligosaccharides through a growth inhibition assay. Standard conditions as described in OECD guideline were maintained during both L. minor culture and growth inhibition assay.
The effects of the chitosan samples and the chitooligosaccharides were tested using a number of 10 fronds per test vessel, with an exposure period of 7 days. In the same conditions, two controls were tested: a negative control (C−), represented by culture medium, and a positive control (C+), represented by 0.5% zinc chloride. All samples and controls were tested in triplicate.
The endpoints of the growth inhibition test were represented by number of fronds, which was used for the plotting of dose–response curves and the calculation of half maximal effective concentration (EC50). The tested samples were classified into aquatic ecotoxicity categories according to U.S. EPA [47] based on the calculated EC50 values: very highly toxic (<0.1 mg/L), highly toxic (>0.1–1 mg/L), moderately toxic (>1–10 mg/L), slightly toxic (>10–100 mg/L) and practically non-toxic (>100 mg/L).
PAST software was used for the statistical analysis of data, with Quest Graph™ EC50 Calculator [65] being used for the calculation of EC50 values. The Shapiro–Wilk W test was used for assessing the normality of the data, with the distribution analysis being followed by an ANOVA analysis. The normally distributed data were analyzed with parametric tests, the homogeneity of variance among treatments was determined through Levene’s test, with Tuckey’s post hoc test being used for the analysis of variances. The non-normally distributed data were analyzed with the Kruskal–Wallis test, variances being further analyzed using Dunn’s post hoc test. The Pearson linear r correlation test was used for all correlation analysis. The differences were considered significant for p values < 0.05.

Lemna trisulca = tested on: Lemna trisulca; set-up: method as in PMID 17074410; conditions: ref [48], cited from earlier work
Lemna gibba = tested on: Lemna gibba; set-up: method as in PMID 16666961; conditions: D-glucosamine 50 mM, ref [49]; cited from earlier work
[1] = number of fronds, exposure period of 7 days

Cl.N[C@H]1[C@H](O[C@H]2[C@H](O)[C@@H](N)C(O)O[C@@H]2CO)O[C@H](CO)[C@@H](O)[C@@H]1O (some centres unmarked) [2G, chitobiose dihydrochloride]
EC50 against Lemna minor (Lemna minor; [1]): 266.36 µg/mL

CC(=O)N[C@@H]1[C@@H](O)[C@H](O)[C@@H](CO)O[C@@H]1O [A, N-acetyl-D-glucosamine]
aquatic toxicity category according to U.S. EPA (Lemna minor): practically non-toxic (practically non-toxic (>100 mg/L))
EC50 against Lemna minor (Lemna minor; [1]): 678.22 µg/mL (≈ 3.07 mM)

N[C@H]1C(O)O[C@H](CO)[C@@H](O)[C@@H]1O (stereo partly drawn) [D, D-glucosamine]
level of zeaxanthin and antheraxanthin, times higher than the control (Lemna trisulca; Lemna trisulca): approximately 30 times
inhibition of violaxanthin synthesis from zeaxanthin and antheraxanthin (Lemna trisulca; even at a concentration of 0.01%): induced the inhibition
inhibition of the respiration rate (Lemna gibba): 30%

N[C@H]1C(O)O[C@H](CO)[C@@H](O)[C@@H]1O (stereo partly drawn) [G, D-glucosamine hydrochloride]
EC50 (Lemna minor; Lemna minor, 168 h, number of fronds, exposure period of 7 days, read-out: EC50 against Lemna minor): 11.6 µg/mL
aquatic toxicity category according to U.S. EPA (Lemna minor): slightly toxic (slightly toxic (>10–100 mg/L))
